Results from patent publication US11530222B2, “Substituted pyrrolopyrimidine and pyrazolopyrimidine as Bruton's tyrosine kinase (BTK) degraders” (ACCUTAR BIOTECHNOLOGY INC., priority 2021, dated 2022).

Key:
Format in all cases: cell-based
REC-1 cells = test: Growth inhibitory activity in BTK-dependent REC-1 cell line (CellTiter-Glo); conditions: Homo sapiens, Rec1, 144 h, 6 days after administration, read-out: REC1 Cellular Grwoth Inhibition IC50
Procedure: (§1) REC-1 (ATCC) and REC-1 BTK^C481S cells were plated in 96-well plates at 8,000 cells/well in 90 ul of RPMI growth medium containing 10% heat-inactivated FBS and 1× Penicillin Streptomycin, and then incubated at 37° C. overnight. The following day, the test compound was administered to the cells by using 10× compound stock solution prepared in growth medium at various concentrations. After administration of the compound, cells were then incubated at 37° C. for 6 days. Before CellTiter-Glo assay, the plates were equilibrated at room temperature for approximately 10 minutes. 100 ul of CellTiter-Glo® Reagent (Promega) was added to each well. The plates were then incubated at room temperature for 10 minutes and luminescence was recorded by EnSpire plate reader (PerkinElmer).
(§2) The GI50 values (i.e., the concentration of test compound at which 50% of cell growth are inhibited) were calculated. A designation of “A” corresponds to a […] value less than 20 nM. A designation of “B” corresponds to a […] value greater than or equal to 20 nM and less than 200 nM. A designation of “C” corresponds to a […] value greater than or equal to 200 nM.

REC-1 BTK^C481S cells = test: Growth inhibitory activity in REC-1 BTK^C481S cell line (CellTiter-Glo); conditions: Homo sapiens, Rec1, 144 h, 6 days after administration, read-out: REC1 BTK^C481S Cellular Grwoth Inhibition IC50
Procedure: The BTK gene in REC-1 cell line (ATCC) was edited by the CRISPR-Cas9 technology to create a C to S point mutation at residue 481 of BTK protein. For gene editing, first, gRNA complex was prepared with Alt-R CRISPR-Cas9 tracrRNA and crRNA BTK^C481S (5′-[…]-3′) (IDT-Integrated DNA Technologies), and then BTK^C481S ribonucleoprotein (RNP) complex was prepared with gRNA complex and Alt-R S.p. Cas9 Nuclease V3 (IDT-Integrated DNA Technologies). Next, 1×10^5 REC-1 cells were electroporated with BTK^C481S RNP complex, Alt-R Cas9 Electroporation Enhancer and BTKC481S Ultramer DNA Oligo (5′-[…] […]-3′) (IDT-Integrated DNA Technologies) using Neon Transfection System (Thermo Fisher) under the condition of 1400 V, 10 ms, 3 pulses. Cells were then plated in a 96-well plate for 10 days and selected with 10 nM Ibrutinib for 5 passages. C481S mutation of BTK was further validated by Sanger Sequencing using gDNA extracted from these cells.
as §1, §2

BTK = molecular target: T1, BTK (Homo sapiens, UniProt Q06187); test: BTK degradative activity in a RAMOS cell line (Western blot); conditions: 6 hours after administration, read-out: RAMOS BTK Degradation DC50
T1 construct: BTK Degradative Activity of Exemplary Compounds of the Present Disclosure in a RAMOS Cell Line; host or cells: RAMOS
Outline: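 Ramos cells in RPMI with 10% FBS were treated with compound in DMSO at various concentrations for 6 h at 37 °C. BTK was measured by Western blot against GAPDH with infrared fluorescent detection and band quantification. DC50 is the concentration at which 50% of BTK is degraded.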

T1 sequence (Q06187 whole entry): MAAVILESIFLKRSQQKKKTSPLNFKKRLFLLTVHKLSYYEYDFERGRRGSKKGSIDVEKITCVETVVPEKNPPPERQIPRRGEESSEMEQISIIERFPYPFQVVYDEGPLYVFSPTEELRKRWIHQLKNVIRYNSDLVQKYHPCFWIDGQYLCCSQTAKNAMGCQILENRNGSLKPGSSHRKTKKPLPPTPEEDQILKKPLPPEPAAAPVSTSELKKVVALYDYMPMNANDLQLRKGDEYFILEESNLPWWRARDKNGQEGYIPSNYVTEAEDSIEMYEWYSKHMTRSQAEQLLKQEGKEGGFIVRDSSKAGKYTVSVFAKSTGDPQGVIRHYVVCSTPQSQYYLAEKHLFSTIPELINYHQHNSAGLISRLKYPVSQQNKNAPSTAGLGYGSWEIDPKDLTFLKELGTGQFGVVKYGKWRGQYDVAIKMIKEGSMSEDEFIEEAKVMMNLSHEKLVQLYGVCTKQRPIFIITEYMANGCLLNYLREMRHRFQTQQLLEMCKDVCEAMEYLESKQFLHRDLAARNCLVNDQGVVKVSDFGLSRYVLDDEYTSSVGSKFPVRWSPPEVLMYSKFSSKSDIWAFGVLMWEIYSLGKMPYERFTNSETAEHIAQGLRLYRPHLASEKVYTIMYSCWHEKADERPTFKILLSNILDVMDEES

| Structure (SMILES) | DC50 (BTK) | IC50 (REC-1 cells) | IC50 (REC-1 BTK^C481S cells) |
| --- | --- | --- | --- |
| COc1ccc(F)cc1C(=O)NCc1ccc(-c2nn(-c3ccc(N4CC(CN5CCN(c6ccc7c(c6)CN([C@H]6CCC(=O)NC6=O)C7=O)CC5)C4)nc3)c3ncnc(N)c23)cc1 [Compound 97, (S)—N-(4-(4-amino-1-(6-(3-((4-(2-(2,6-dioxopiperidin-3-yl)-1-oxoisoindolin-5-yl)piperazin-1-yl)methyl)azetidin-1-yl)pyridin-3-yl)-1H-pyrazolo[3,4-d]pyrimidin-3-yl)benzyl)-5-fluoro-2-methoxybenzamide] | < 10 nM | < 20 nM | < 20 nM |
| COc1ccc(F)cc1C(=O)NCc1ccc(-c2nn(-c3ccc(N4CCC(CN5CCN(c6ccc7c(c6)CN([C@H]6CCC(=O)NC6=O)C7=O)CC5)C4)c(F)c3)c3ncnc(N)c23)cc1 (stereo partly drawn) [Compound 65, N-(4-(4-amino-1-(4-(3-((4-(2-((S)-2,6-dioxopiperidin-3-yl)-1-oxoisoindolin-5-yl)piperazin-1-yl)methyl)pyrrolidin-1-yl)-3-fluorophenyl)-1H-pyrazolo[3,4-d]pyrimidin-3-yl)benzyl)-5-fluoro-2-methoxybenzamide] | < 10 nM | < 20 nM | < 20 nM |
| COc1ccc(F)cc1C(=O)NCc1ccc(-c2nn(-c3ccc(N4CC(CN5CCN(c6ccc7c(c6)CN([C@H]6CCC(=O)NC6=O)C7=O)CC5)C4)c(F)c3)c3ncnc(N)c23)cc1 [Compound 85, (S)—N-(4-(4-amino-1-(4-(3-((4-(2-(2,6-dioxopiperidin-3-yl)-1-oxoisoindolin-5-yl)piperazin-1-yl)methyl)azetidin-1-yl)-3-fluorophenyl)-1H-pyrazolo[3,4-d]pyrimidin-3-yl)benzyl)-5-fluoro-2-methoxybenzamide] | < 10 nM | < 20 nM | < 20 nM |
| COc1ccc(F)cc1C(=O)NCc1ccc(-c2nn(-c3ccc(N4CCC(CN5CCN(c6ccc7c(c6)CN([C@H]6CCC(=O)NC6=O)C7=O)CC5)CC4)c(F)c3)c3ncnc(N)c23)cc1 [Compound 49, (S)—N-(4-(4-amino-1-(4-(4-((4-(2-(2,6-dioxopiperidin-3-yl)-1-oxoisoindolin-5-yl)piperazin-1-yl)methyl)piperidin-1-yl)-3-fluorophenyl)-1H-pyrazolo[3,4-d]pyrimidin-3-yl)benzyl)-5-fluoro-2-methoxybenzamide] | < 10 nM | < 20 nM | < 20 nM |
| COc1ccc(F)cc1C(=O)NCc1ccc(-c2nn(-c3ccc(N4CCC(CN5CCN(c6ccc7c(c6)CN([C@H]6CCC(=O)NC6=O)C7=O)CC5)C4)nc3)c3ncnc(N)c23)cc1 (stereo partly drawn) [Compound 66, N-(4-(4-amino-1-(6-(3-((4-(2-((S)-2,6-dioxopiperidin-3-yl)-1-oxoisoindolin-5-yl)piperazin-1-yl)methyl)pyrrolidin-1-yl)pyridin-3-yl)-1H-pyrazolo[3,4-d]pyrimidin-3-yl)benzyl)-5-fluoro-2-methoxybenzamide] | < 10 nM | < 20 nM | < 20 nM |

Continued, in another order:

| DC50 (BTK) | Structure (SMILES) | IC50 (REC-1 cells) | IC50 (REC-1 BTK^C481S cells) |
| --- | --- | --- | --- |
| < 10 nM | COc1ccc(F)cc1C(=O)NCc1ccc(-c2nn(-c3ccc(N4CC[C@H](CN5CCN(c6ccc7c(c6)CN([C@H]6CCC(=O)NC6=O)C7=O)CC5)C4)nc3)c3ncnc(N)c23)cc1 [Compound 93, N-(4-(4-amino-1-(6-((R)-3-((4-(2-((S)-2,6-dioxopiperidin-3-yl)-1-oxoisoindolin-5-yl)piperazin-1-yl)methyl)pyrrolidin-1-yl)pyridin-3-yl)-1H-pyrazolo[3,4-d]pyrimidin-3-yl)benzyl)-5-fluoro-2-methoxybenzamide] | < 20 nM | < 20 nM |
| < 10 nM | COc1ccc(F)cc1C(=O)NCc1ccc(-c2nn(-c3ccc(N4CC[C@H](CN5CCN(c6ccc7c(c6)CN([C@H]6CCC(=O)NC6=O)C7=O)CC5)C4)c(F)c3)c3ncnc(N)c23)cc1 [Compound 95, N-(4-(4-amino-1-(4-((R)-3-((4-(2-((S)-2,6-dioxopiperidin-3-yl)-1-oxoisoindolin-5-yl)piperazin-1-yl)methyl)pyrrolidin-1-yl)-3-fluorophenyl)-1H-pyrazolo[3,4-d]pyrimidin-3-yl)benzyl)-5-fluoro-2-methoxybenzamide] | < 20 nM | < 20 nM |
| < 10 nM | COc1ccc(F)cc1C(=O)NCc1ccc(-c2nn(-c3ccc(N4CC[C@@H](CN5CCN(c6ccc7c(c6)CN([C@H]6CCC(=O)NC6=O)C7=O)CC5)C4)nc3)c3ncnc(N)c23)cc1 [Compound 94, N-(4-(4-amino-1-(6-((S)-3-((4-(2-((S)-2,6-dioxopiperidin-3-yl)-1-oxoisoindolin-5-yl)piperazin-1-yl)methyl)pyrrolidin-1-yl)pyridin-3-yl)-1H-pyrazolo[3,4-d]pyrimidin-3-yl)benzyl)-5-fluoro-2-methoxybenzamide] | < 20 nM | < 20 nM |
